Source: PMC7746546, “The JAK1 Selective Inhibitor ABT 317 Blocks Signaling Through Interferon-γ and Common γ Chain Cytokine Receptors to Reverse Autoimmune Diabetes in NOD Mice” (Frontiers in Immunology, 2020)

Columns and labels:
JAK1 over JAK3 = test system: JAK1 over JAK3; set-up: method as in PMID 30806706, PMID 27390150; settings: cited from earlier work
JAK1 over JAK2 = test system: JAK1 over JAK2; set-up: method as in PMID 30806706, PMID 27390150; settings: cited from earlier work
[1] = test system: JAK2-dependent cytokines IL-3 and GM-CSF; settings: cited from earlier work
[2] = test system: IFN-γ mediated MHC class I upregulation on β cells; set-up: method as in PMID 28292965; settings: cited from earlier work
[3] = test system: autoimmune insulitis in NOD mice; set-up: method as in PMID 28292965; settings: cited from earlier work
[4] = cited from earlier work
[5] = test system: IL-21 signaling in T cells; assay: IL-21-induced pSTAT3 in spleen T cells in vitro (flow cytometry); assay type: cell-based, mouse; settings: 0.05, 0.2, 1 and 2 µM, CD8+ and CD4+ T cells, Fig S2K-L
Description: […] […] For use in vivo, 3 mg/kg or 10 mg/kg of drug was delivered twice daily by oral gavage in the vehicle 0.5% hydroxypropyl methylcellulose in sterile H2O. The JAK1/JAK2 inhibitor baricitinib was purchased from SelleckChem and used at a concentration of 3 mg/kg in vivo made up in a vehicle of 0.5% methyl cellulose.
Single-cell suspensions from the spleens were prepared by mechanical tissue disruption through a 70 μm cell strainer followed by red cell lysis. Cells were resuspended in FACS buffer (0.5% FCS in PBS) and filtered through a nylon mesh.
Whole islets were treated with vehicle or ABT 317 for 1 h before culture with 10 ng/ml IFN-γ for 72 h, and analysis by flow cytometry. Splenocytes and whole blood were stimulated with 100 U/ml IL-2, 50 ng/ml IL-7, 30 ng/ml IL-15, 25 ng/ml IL-21, or 40 ng/ml GM-CSF for 30 min at 37°C. Red blood cells were lysed (155 mmol/L NH4Cl, 10 mmol/L Tris-HCl, pH 7.5). Leukocytes were analyzed by flow cytometry.
Mouse islet cells were stained with anti-CD45 and biotinylated anti-H2Kd (BD Pharmingen) followed by streptavidin-allophycocyanin (BioLegend). β‐cells were identified by autofluorescence ([23]). Dead cells were excluded using propidium iodide. […] Data were collected on the FACS Fortessa cell analyzer (BD Bioscience, San Jose, CA, USA) and were analyzed using FlowJo Software version 10 (TreeStar, Inc, Ashland, OR, USA).

[6] = set-up: method as in PMID 29481660; settings: participants with diabetic kidney disease, phase 2 trial; cited from earlier work

CC[C@@H]1CN(C(=O)NCC(F)(F)F)C[C@@H]1c1cnc2cnc3[nH]ccc3n12 [upadacitinib]
selectivity for JAK1 over JAK3 (JAK1 over JAK3): 58 fold | selectivity for JAK1 over JAK2 (JAK1 over JAK2): 74 fold | effect on JAK2-dependent cytokines IL-3 and GM-CSF [1]: inhibits

Cc1cc(Nc2nc(N[C@@H](C)c3ncc(F)cn3)ncc2Cl)n[nH]1 [AZD1480]
IFN-γ mediated MHC class I upregulation on β cells [2]: blocked | established autoimmune insulitis [3]: reversed | immune cell infiltration into pancreatic islets [3]: reduced

O=C(Nc1nc2cccc(-c3ccc(CN4CCS(=O)(=O)CC4)cc3)n2n1)C1CC1 [filgotinib]
anemia ([4]; rheumatoid arthritis patients): did not result in anemia

CCS(=O)(=O)N1CC(CC#N)(n2cc(-c3ncnc4[nH]ccc34)cn2)C1 [baricitinib]
blocking IL-21 signaling through pSTAT3, dose dependence [5]: similar | albuminuria [6]: reduction | neutropenia in clinical trials [4]: neutropenia has been found

C[C@@H]1CCN(C(=O)CC#N)C[C@@H]1N(C)c1ncnc2[nH]ccc12 [tofacitinib]
blocking IL-21 signaling through pSTAT3, dose dependence [5]: similar
